Reference: patent US20230099822A1, “MR1 LIGANDS AND PHARMACEUTICAL COMPOSITIONS FOR IMMUNOMODULATION” (UNIVERSITÄT BASEL, priority 2020, published 2023)
Where “and” joins values, the source holds several entries; their conditions need not be identical. Identical values can stand only once. Entries after “also recorded” stand apart in the source; their conditions may differ.

Legend:
MR1T cell clones [1] = test: MR1T cell activation assay with THP-1 cells incubated with compounds (cytokine ELISA); assay type: cell-based, human
Description: MR1T cells (5×10^4/well unless otherwise indicated) were co-cultured with the indicated APCs (10^5 cells per well unless otherwise indicated) for 18 h in 120 μL volume in triplicate.
When nucleobases, nucleosides or nucleotides (all 250 μM) and synthetic compounds M3ADE, OPdA, M1G or OPdC were used to stimulate T cells, the THP-1 cells (10^5/well) were cultured 2 h with the indicated molecules or medium only, prior to T-cell addition. When a single concentration of synthetic antigens was used, 100 μM OPdA, 100 μM OPdC and 13 μM M1G were used for all clones, while 100 μM M3ADE was used for all clones except DGB129, AC1A4, AC1B76 and AVA46 for which 1 μM was used.

[2] = tested on: tumor-infiltrating T cells from lung cancer biopsies; test: Activation of MR1-M3ADE tetramer-sorted TIL lines; assay type: cell-based, human; conditions: A375-MR1 cells with or without M3ADE; TCR downregulation, IFN-γ
Description: Tissue biopsy samples derived from small cell lung tumors that were digested with media containing Accutase (Innovative Cell; Cat #AT-104), Collagenase IV 200 U/mL (Worthington; Cat #LS004189), DNAse I 0.5 mg/mL (Sigma-Aldrich Cat #D5025) and Hyaluronidase 50 mg/mL (Sigma; Cat #H6254) for 1 hour at 37° C. Digested material was passed through a […] cell strainer and erythrocytes were lysed before being frozen and stored in liquid nitrogen. After thawing, TILs were rested for 2 days prior to co-culture with A375-p2mKO-MR1 cells in a ratio of 1:1 and in the presence of 50 μM M3ADE. On day 5, human rIL-2 (5 U/mL) was added to the cultures for a further 5 days, and expansion in this manner was repeated 3 times. Cells were then stained with MR1-M3ADE tetramer, anti-CD3, anti-CD4 and anti-CD8 mAbs, and tetramer positive cells were sorted into a bulk line before functional experiments.
The inventors isolated TILs from non-small cell-lung-cancer biopsies from two patients and co-cultured them with A375-MR1 cells loaded with M3ADE, in order to expand MR1T cells. […] The inventors measured the extent of MR1T-cell activation via TCR downregulation, which occurred only in the presence of […] M3ADE-loaded A375-MR1 cells, and was prevented by anti-MR1 blocking mAbs (FIG. 14C, donor 840, and FIG. 14D, donor 895). […]

[3] = target: T1, MR1 surface expression on THP-1 MR1 cells (Homo sapiens, UniProt Q95460); test: Cell surface MR1 modulation on APCs (flow cytometry, anti-MR1 mAb 26.5); assay type: cell-based
T1 construct: expressed in transfected cells; host or cells: THP-1 (ATCC TIB-202) stably expressing MR1 (THP1-MR1)
T1 sequence (Q95460 23-341): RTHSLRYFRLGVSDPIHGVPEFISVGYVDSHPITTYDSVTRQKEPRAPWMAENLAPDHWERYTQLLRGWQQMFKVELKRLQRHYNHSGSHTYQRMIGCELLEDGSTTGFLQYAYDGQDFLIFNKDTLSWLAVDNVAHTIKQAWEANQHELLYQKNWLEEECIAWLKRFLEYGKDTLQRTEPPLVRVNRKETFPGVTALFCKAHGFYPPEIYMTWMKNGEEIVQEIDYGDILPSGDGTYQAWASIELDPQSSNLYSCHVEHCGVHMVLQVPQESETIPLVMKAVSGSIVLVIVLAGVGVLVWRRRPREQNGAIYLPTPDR
T1 sequence (P61769 21-119 partner): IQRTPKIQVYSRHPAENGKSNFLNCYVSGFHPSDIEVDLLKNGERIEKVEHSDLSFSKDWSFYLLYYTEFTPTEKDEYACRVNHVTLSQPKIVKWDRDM
Description: […] […] For each condition, net MFI was calculated subtracting isotype MFI from anti-MR1 MFI and fold change of cells treated with synthetic molecules over cells treated with vehicle was calculated.

MR1T cell clones [4] = test: MR1T cell activation assay with treated and fixed A375-MR1 cells; assay type: cell-based, human; conditions: 6 h incubation before fixation; clones TC5A87 and DGB129 (FIG. 9C, D)
[5] = tested on: MR1T cell clones AVA34, AC1A4 and MAIT clone MRC25; test: MR1 tetramer staining of T cell clones; assay type: binding, human
Description: Correct protein conformation was confirmed by performing a plate-bound activation of the MR1T cell clone DGB129. Refolded MR1-compound protein was serially diluted in PBS (1.5-100 μg/mL) and added to a high-protein-binding plate (Nunc, Cat #439454) for 2 h at 37° C. The wells were washed thoroughly with PBS before addition of 5×10^4 cells that were left overnight at 37° C. IL-13 ELISA was then used as an activation readout. The functional monomer was then biotinylated using BirA-500 biotinylation kit (Avidity, Cat #Bulk BirA) overnight at 4° C. Excess biotin was removed using S75 10/30 (GE Healthcare, 29148721) gel filtration before tetramerization with phycoerythrin (PE) streptavidin (Prozyme, Cat #P JRS25) in a 4:1 molar ratio. As control MR1 tetramers, human MR1-5-OP-RU and human MR1-6-FP labelled with APC, PE or AlexaFluor488 were used (The MR1 tetramer technology was developed jointly by Dr. James McCluskey, Dr. Jamie Rossjohn, and Dr. David Fairlie, and the material was produced by the NIH Tetramer Core Facility as permitted to be distributed by the University of Melbourne). […]
Samples were acquired on LSR Fortessa flow cytometer with the FACS Diva software (Becton Dickinson). […] When PBMCs were analyzed, CD14^+ and CD19^+ cells were excluded by staining with fluorescent antibodies detected in the same channel as the Live/Dead staining. All data was analyzed using FlowJo (LLC).

MR1T cell clones [6] = test: Activation assay with plate-bound soluble MR1; assay type: cell-based, human; conditions: IL-13 (FIG. 4)
Description: Recombinant human P2m-MR1-Fc was produced in CHO-K1 cells as previously described (Lepore et al., 2017) and 4 μg/mL were coated onto 96 wells plates (Nunc, Cat #439454) for 18 h at 4° C. Plate-bound MR1 was then washed twice with wash buffer (150 mM NaCl, 20 mM Tris and 2% Glycerol, pH 5.6) to remove bound antigens. Then, the synthetic antigens (M3ADE, OPdA, M1G and OPdC) were added at the indicated concentrations and incubated for 6 h at room temperature (RT). Unbound antigens were washed twice with PBS before the addition of excess PBS. In some experiments, bacteria-produced and refolded MR1-M3ADE protein was serially diluted in PBS and added to a high protein binding plate (Nunc, Cat #439454) for 2 h at 37° C. then washed twice and used in the stimulation assay. Indicated MR1T cell clones ([…]) were added and supernatants were collected after 18 h. Released cytokines were detected by ELISA. Recombinant human P2m-MR1-Fc was produced in CHO-K1 cells as previously described and 4 μg/mL were coated onto 96 wells plates. Antigens produced by CHO-K1 cells were removed by washing twice with wash buffer (150 mM NaCl, 20 mM Tris and 2% Glycerol, pH 5.6). […]
Correct protein conformation was confirmed by performing a plate-bound activation of the MR1T cell clone DGB129. […] IL-13 ELISA was then used as an activation readout. […]

In the case of `O=CC1=COC2CC1C(C=O)=CN2c1ncnc2[nH]cnc12` (centres unmarked) [Cmpd 13, 8-(9H-purin-6-yl)-2-oxa-8-azabicyclo[3.3.1]nona-3,6-diene-4,6-dicarbaldehyde], the “Reactive T cells isolated” value (MR1T cell clones [1]) is reported as “YES”, the “activation of MR1T clone AC1A4 by adduct” value (MR1T cell clones [1]) is reported as “activated” and the “potency among the synthesized adducts” value (MR1T cell clones [1]) is reported as “highest potency”. For the same compound, the “response to THP-1 cells when adduct added” value (MR1T cell clones [1]; M1G or M3ADE added to clones QY1A16 and QY1C3, respectively) was “significant decreased response”, the “activation of MR1T clone AVA34 by compound” value (MR1T cell clones [1]; THP-1 / MR1+ APCs loaded with compound, listed as M3ADE) was “specifically activated; also recorded: reacted” and the “number of MR1T clones significantly stimulated” value (MR1T cell clones [1]; fourteen randomly selected MR1T clones, THP-1 cells, IFN-γ (FIG. 12B), listed as M3ADE) was “six and 6/14”. The “IL-13 release by AVA34 cells” value (MR1T cell clones [1]; toward THP-1 cells in the presence of compound (FIG. 5b)) was “IL-13 release”, the “reactivity of tetramer-positive TIL cells, donor 895” value [2] was “reacted only to M3ADE-loaded A375-MR1 cells” and the “reactivity of tetramer-positive TIL cells, donor #840” value [2] was “irrespective of the presence of M3ADE”. The MRI upregulation ([3]; THP-1 MR1 cells, 3 h at 37° C., 3 doses each) was “YES” and the “cell surface MR1 upregulation on APCs (in words)” value ([3]; pulsed APC / THP1-MR1 cells) was “most efficient in increasing MR1 surface expression”.
`O=CC[C@@H](O)[C@H](O)[C@H](O)CO` [deoxyglucose, 2-deoxy-D-Glucose] was tested, and the “MR1T-cell stimulatory capacity of pulsed and fixed A375-MR1 cells” value (MR1T cell clones [4]) was “abolished”.
With “MR1-6-FP tetramers: control MR1 tetramer, human MR1-6-FP, produced by the NIH Tetramer Core Facility” the “tetramer staining of MR1T clone AVA34” value [5] was “not”.
With “MR1-M3ADE monomers: human recombinant soluble MR1 refolded in vitro in the presence of M3ADE” the “stimulation of clone DGB129 by refolded MR1-M3ADE monomers” value (MR1T cell clones [6]) was “stimulated”.
